Consider 1 molecule from patent US20200138031A1, “MIXTURES OF SABADILLA ALKALOIDS AND N-OCTYL BICYCLOHEPTENE DICARBOXIMIDE AND USES THEREOF” (priority 2016, published 2020).

For the data set, the system named is German cockroach (Blattella germanica). In words: direct spray bioassay against German cockroach. Format: in vivo. The settings on record: for % Mortality: Hour 4; for mortality at 0.05 % strength / mortality at 0.5 % strength / mortality at 5 % strength: Blattella germanica. On the procedure:
To determine if the mixtures provided unexpected results, the observed combined efficacy (“OCE”) was divided by the expected combined efficacy (“ECE”) to give an OCE/ECE ratio wherein the expected ECE is calculated by the Abbott method: […]
wherein ECE is the expected combined efficacy and in which A and B are the efficacy provided by the single active ingredients. If the ratio between the OCE of the mixture and the ECE of the mixture is greater than 1, then greater than expected interactions are present in the mixture. (Gisi, The American Phytopathological Society, 86:11, 1273-1279, 1996).
A direct spray bioassay for a mixture of sabadilla and MGK264 against German cockroach (Blattella germanica) was conducted on Feb. 13-20, 2019. A water-based formulation containing Sabadilla alone, MGK264 alone, or these combinations were prepared using test products and distilled water. Ten adults (1:1 sex ratio) of the cockroach were put into 200 mL clean cup (80 mm diameter×45 mm height) laid a filter paper (82 mm diameter) at the bottom. The cup was set on the bottom of CSMA chamber (460 mm×460 mm×700 mm height), and 1.5 mL of water (control) or water-based formulation of test products was sprayed from the distance of 60 cm toward the cup at the air pressure of 0.041 MPa (0.42 kg/cm2). […] The test was repeated 4 times and calculated mortality (%) at each observation point.

Usually mortality stands for the percentage killed.

Turning to `CCCCC(CC)CN1C(=O)C2C3C=CC(C3)C2C1=O` (stereo not drawn) [MGK264, N-octyl bicycloheptene dicarboximide], the “% Mortality” value runs as follows: (0.05 % w/w) 0.0%; (0.5 % w/w) 0.0%; (5.0 % w/w) 0.0%. In addition, the mortality at 0.05 % strength turned out to be 0% (24 h, 0.05 % w/w, Day 1); 0% (48 h, 0.05 % w/w, Day 2); 2.6% (120 h, 0.05 % w/w, Day 5); 2.6% (144 h, 0.05 % w/w, Day 6); 2.6% (168 h, 0.05 % w/w, Day 7); 0% (0.05 % w/w, Hour 1). Moreover, the mortality at 0.5 % strength is, setting by setting: (24 h, 0.5 % w/w, Day 1) 0%; (48 h, 0.5 % w/w, Day 2) 0%; (120 h, 0.5 % w/w, Day 5) 0%; (144 h, 0.5 % w/w, Day 6) 0%; (168 h, 0.5 % w/w, Day 7) 0%; (0.5 % w/w, Hour 1) 0%. The mortality at 5 % strength amounted to 0% (24 h, 5.0 % w/w, Day 1); 0% (48 h, 5.0 % w/w, Day 2); 0% (120 h, 5.0 % w/w, Day 5); 0% (144 h, 5.0 % w/w, Day 6); 0% (168 h, 5.0 % w/w, Day 7); 0% (5.0 % w/w, Hour 1).
